Data from PubChem BioAssay AID2305 (GlaxoSmithKline (GSK), 2010).

What follows are compounds tested on P. falciparum 3D7 growth, pLDH absorbance (assay: P. falciparum 3D7 growth inhibition, dose response, strain 3D7 (AID 2305)).

Compound	IC50 [nM]
Cc1ccc(F)c(NC(=O)c2c(-c3c(F)cccc3Cl)noc2C)c1	930
O=C(COc1ccccc1)NC1CCN(c2ccnc3cc(Cl)ccc23)C1 (stereo not drawn)	700
CNC(=O)/C=C/c1cc(NC(=O)Nc2cc(C)nc3c(F)cccc23)ccc1OC	910
O=C(NCC1CCC(CNCCc2ccccc2)CC1)Nc1ccc(Cl)c(Cl)c1 (stereo not drawn)	740
CC(C)CCNc1nc(NCCCc2ccccc2)c2cc(O)ccc2n1	170
Cc1cccc(-c2nn(-c3ccccc3)c3[nH]c(=O)c(CN4CCSCC4)cc23)c1	1010
COC(=O)/C=C/c1ccc(C[C@@H](C)NC[C@H](O)c2cccc(C(F)(F)F)c2)cc1	730
CCOCCCn1c(=N)c(C(=O)NCc2ccc(OC)cc2)cc2c(=O)n3cccc(C)c3nc21	1060
COc1cccc(-c2cc(C(=O)Nc3cc(Oc4ccc(O)cc4)cc([N+](=O)[O-])c3)on2)c1	1050
Nc1ncc(-c2cc3ccccc3o2)c(N)n1	1410
CC(CCCCCC(=O)Nc1ccc(CC(C)NCCc2cccc(Cl)c2)cc1)NCCc1cccc(Cl)c1 (stereo not drawn)	950
O=C(Nc1ccc(F)cc1)c1ccc(C(=O)NC2CCN(CC3CCCCC3)CC2)cc1	540
COc1ccc(-c2nc(-c3ccc([N+](=O)[O-])cc3)no2)cc1OC	410
COc1cc(N(C)Cc2cnc3nc(N)nc(N)c3n2)cc(OC)c1OC	440
CCN1CCCC1CNC(=O)c1cc2c(-c3ccc(Cl)cc3)nn(C)c2s1 (stereo not drawn)	790
COc1ccc(NC(=O)[C@H](Cc2ccccc2)Nc2cc(C)nc(NCCc3ccccc3)n2)cc1	1240
O=C(NCCc1cccc(Cl)c1Cl)c1cnc(N2CCN(c3ccncc3)CC2)c(Cl)c1	700
O=C(Cc1cccc(Cl)c1)Nc1cccc(-c2c[nH]c3nc(Nc4cccc(OCc5ccccc5)c4)ncc23)c1	1040
OC(CNc1ccnc(Nc2ccc(Cl)cc2)n1)c1cccc(C(F)(F)F)c1 (stereo not drawn)	680
CC(CN1CCN(CC(c2ccc(F)cc2)N2CCN(C)CC2)CC1)C(=O)c1ccc(O)cc1 (stereo not drawn)	670
COc1ccc(-c2ccc(NC(=O)c3cccc(Cl)c3)cc2)cc1CN1CCN(C)CC1	950
COc1ccc(CN=C(N)Nc2nc(-c3ccc(OCCCn4ccnc4)cc3)cs2)cc1	390
CCC(O)(C#Cc1c(C)nc(N)nc1N)CC	640
Cc1cccc2[nH]c(-c3cccc(-c4cccc(NC(=O)CC5NC(=O)c6ccccc65)c4)c3)nc12 (stereo not drawn)	1030
Fc1ccc2nc(-c3cccc(-c4ccc(CNCc5ccccc5)cc4)c3)[nH]c2c1	270

Compound	IC50 [nM]
CN(C)CCOc1ccc(-c2cc(-c3ccnc(N)n3)c(-c3ccc(Cl)c(O)c3)o2)cc1	980
COc1ccc(CNCc2ccsc2)cc1-c1ccc(S(=O)(=O)NCCN2CCCC2)s1	770
CCC[C@@H]([C@@H](CC1CCCCC1)C(=O)N[C@@H](CCOC(=O)NCC)C(=O)Nc1nccs1)N(O)C=O	80
CCN(CC)CCCC(C)N=C(Nc1ccc(C#N)cc1O)Nc1ccccc1Br (stereo not drawn)	1040
CCn1cc(CN2C(=O)C(c3ccccc3)(c3ccccc3)N=C2N)cn1	820
CC(C)C[C@@H](C(=O)N[C@H](C(=O)Nc1nccs1)C(C)(C)C)[C@H](CCC(F)(F)F)N(O)C=O	600
CCCCCn1c(Sc2ccc(C#N)c([N+](=O)[O-])c2)nnc1-c1cccc(Cl)c1	770
CCc1c(C)c(C#N)c2nc3ccccc3n2c1NCc1ccco1	700
CC(C)c1cccc(OCC2CCN(c3ncc(C(=O)NC4CC4)cc3Cl)CC2)c1	680
Cc1ccc(Nc2nc(C)cc(N3CCN(c4ccccc4)CC3)n2)cc1	1530
CCOc1ccc(C(=O)Nc2cc(Br)c3c(c2)CNCC3)cc1C#N	760
CN1CCN(c2cc3c(cc2Cl)CCN3C(=O)Cc2ccc(NC(=O)Nc3cccc4ccccc34)cc2)CC1	970
Cc1cc(F)ccc1[C@H]1CNCCN1C(=O)N(C)[C@@H](C)c1cc(C(F)(F)F)cc(C(F)(F)F)c1	230
Oc1ccc(CCNc2nc(NCc3ccccc3-c3ccccc3)nc(N3CCCNCC3)n2)cc1	880
O=C(O[C@@H]1CN[C@H](C#Cc2cc3ncnc(Nc4ccc5c(cnn5Cc5cccc(F)c5)c4)c3s2)C1)N1CCCC1	760
Cc1ccccc1C1CCN(C2CCC(NC(=O)/C=C/c3cccc(F)c3F)CC2)CC1 (stereo not drawn)	1150
Cc1nnc2c(NC(=O)NC3CCCC3)cc3cc(-c4ccc(CN5CCCCC5)cc4)ccc3n12	950
N#Cc1ccc(C(=O)Nc2cc(-c3cccc(O)c3)cc3[nH]ncc23)cc1	1370
CC(=O)Nc1ccc(C(=O)Nc2ccc(-c3cccc(-c4nc5ccccc5[nH]4)c3)cc2)cn1	240
CN(Cc1ccccc1)C1CCN(c2cc(NC(=O)c3cccc(F)c3)ccn2)CC1	1510
Cc1ccccc1NC(=O)NC1CCN(CCCCCNC(=O)/C=C/c2ccc(Cl)c(Cl)c2)CC1	770
CCOc1cccc(C2c3c(oc4ccccc4c3=O)C(=O)N2CCN(CC)CC)c1 (stereo not drawn)	750
Clc1cccc(CNC2CCN(CC3CCCCC3)CC2)c1	910
CCc1cn2c3c(cc(C(=O)N[C@@H](Cc4cccc(F)c4)[C@H](O)CNC4CC4)cc13)N(C)S(=O)(=O)CC2	140
c1ccc2cc3c(Nc4ccc(N5CCCCC5)cc4)ccnc3cc2c1	740

Compound	IC50 [nM]
CCCC(=O)c1cnc2c(I)cccc2c1Nc1ccccc1C	1160
COc1c(C2CCN(CCCCNC(=O)c3ccc(-c4ccc(C#N)cc4)c(O)c3)CC2)ccc2c1CCCC2	200
COc1cc(Nc2nccn3c(-c4ccsc4)cnc23)cc(OC)c1OC	890
CCOc1cc(CC)ccc1C1CCN(CCN2CCC(NC(=O)c3ccc(-c4ccc(C#N)cc4)cc3)CC2)CC1	610
Fc1cccc(COc2ccc(Nc3ncnc4ccc(C#C[C@H]5CCCN5)cc34)cc2Cl)c1	880
CN1CCC(C(=O)N(Cc2ccc(-c3ccc(CNCCc4ccc(S(C)(=O)=O)cc4)cn3)cc2)C2Cc3ccccc3C2)CC1	660
CC(O)C1CCCCN1C(=O)c1ccc(-c2ccc(-c3nc4ccc(F)cc4[nH]3)cc2)cc1 (stereo not drawn)	440
O=C(Nc1ccc(Cl)cc1)Nc1ccc(-c2ccc(-c3nc4ccccc4[nH]3)cc2)cc1	50
O=S(=O)(NCCN1CCCC1)c1ccc(-c2ccc(CNC3Cc4ccccc4C3)cc2)s1	590
CCNc1nc(OCC(F)(F)F)nc(N(c2ccccc2)c2ccccc2)n1	470
Cc1cccc2[nH]c(-c3cccc(-c4cccc(NC(=O)Nc5ccc(F)c(F)c5F)c4)c3)nc12	110
CC1CCN(CC[C@H]2CCCN2S(=O)(=O)c2cccc(NC(=O)c3cc4ccccc4s3)c2)CC1	830
CCN1CCN(Cc2ccc(-c3ccc(NS(=O)(=O)c4cccc5cccnc45)cc3)cc2)CC1	920
COc1ccc(OCCON)cc1	200
COc1ccc(NC(=O)c2ccc(OCCCCCCCOc3ccc(C(=O)Nc4ccc(OC)c(N5CCN(C)CC5)c4)cc3)cc2)cc1N1CCN(C)CC1	600
O=C(/C=C/c1ccc([N+](=O)[O-])cc1)N1CCC(NS(=O)(=O)c2ccc(F)cc2)CC1	820
O=C(Nc1ccc(-c2nc3ccccc3[nH]2)cc1)c1ccc(N2CCCC2)c([N+](=O)[O-])c1	680
CN1CCN(CCCN(Cc2cccc(-c3cccc(CNCc4ccc5c(c4)OCO5)c3)c2)C(=O)CCC2CCCC2)CC1	950
Nc1cnc(C#Cc2cc3ncnc(N(CCN4CCOCC4)c4ccc(OCc5cccc(F)c5)c(Cl)c4)c3s2)cn1	1050
COc1cc2nc(N[C@@H](CO)c3ccccc3)nc(NCc3ccccc3)c2cc1OC	660
Nc1ccnc2ccc(NC(=O)CCCCCc3ccccc3)cc12	860
CC1CN(Cc2ccc(-c3cccc(-c4nc5ccc(F)cc5[nH]4)c3)cc2)CC(C)O1 (stereo not drawn)	920
CCCN=CNc1cc(-c2csc(N=C(N)N)n2)cc([N+](=O)[O-])c1	1740
Cc1cc(C(=O)NC2CCN(Cc3ccccc3)CC2)ccc1-c1nc2ccc(C(F)(F)F)cc2[nH]1	890
CCOc1cc2ncnc(Nc3ccc(OCc4ccccc4OC)c(OC)c3)c2cc1OCC	880

Compound	IC50 [nM]
O=C(/C=C/c1ccc(Cl)c(Cl)c1)NCCCCCN1CCCC(CNS(=O)(=O)c2cccc(C(F)(F)F)c2)C1 (stereo not drawn)	950
Cc1cccc2[nH]c(-c3ccc(-c4ccc(CN5CCN(CCC#N)CC5)cc4)cc3)nc12	860
Nc1nc(Cc2ccc(Cl)cc2)nc(Cc2ccc(Cl)cc2)n1	930
COc1ccc2[nH]cc(C3C[C@H]4CC[C@@H](C3)N4CCC3CCN(C(=O)/C=C/c4ccc(Cl)c(Cl)c4)CC3)c2c1 (stereo partly drawn)	620
COc1ccc(NC(=O)c2ccc(C=Cc3ccc(C(F)(F)F)cc3)cc2)cc1N1CCN(C)CC1	420
CCOC(=O)CCCN1C(=O)CN=C(c2ccccc2)c2cc(Cl)ccc21	780
c1cc(CN2CCCCC2)cc(-c2ccc(-c3nc4ccccc4[nH]3)cc2)c1	890
NC(=O)c1ccccc1OCC(=O)Nc1cccc(-c2cccc(-c3nc4ccccc4[nH]3)c2)c1	380
COc1ccc(-c2ccc(NC(=O)c3cccc(Cl)c3)c(F)c2)cc1CNC(C)C	890
O=C(Nc1nc2cc(S(=O)(=O)NCCCN3CCOCC3)ccc2n1CCCn1ccnc1)c1ccc(Cl)cc1	930
CN(C)CCN(Cc1ccccc1)c1ccc([N+](=O)[O-])cc1C(F)(F)F	780
O=C(O)CCCN1CCCC(=C(c2ccccc2)c2ccccc2)C1	1190
COc1ccccc1CCC(C)(C)NC(=O)CC(CCc1ccccc1)Nc1ccc(C#N)c2ccccc12 (stereo not drawn)	920
c1cc(CNCCN2CCNCC2)cc(-c2ccc(-c3nc4ccccc4[nH]3)cc2)c1	1080
CCCCN(CCCC)CC(O)c1cc(-c2ccc(Cl)cc2)nc2c(Cl)cc(Cl)cc12 (stereo not drawn)	30
COc1ccc2nccc([C@@H](O)CN3CCC(NCc4[nH]c5ccccc5c4F)CC3)c2c1	250
CCc1cc2c(cc1OCCN(C)C)N(C(=O)Nc1ccc(-c3ccncc3)c(Cl)c1)CC2	840
CCCNCc1ccc(-c2ccc(CN(CCOC)C(=O)CCCOCc3ccccc3)cc2)nc1	1160
O=C(NC(=S)NCc1ccncc1)c1ccccc1	1690
Cc1c(CNCCCNc2nc3cscc3[nH]2)sc(C(F)F)c1Br	940
Nc1c(Cl)cc(C(O)CNCCCCCCOCCc2ccc(O)cc2)cc1Cl (stereo not drawn)	730
Cc1ccc(S(=O)(=O)NC2CCN(CCNC(=O)Nc3cc(C)nc4ccccc34)C2)cc1 (stereo not drawn)	1040
COc1ccccc1-n1c(SCC(=O)c2ccc3c(c2)CC(=O)N3C)nnc1-c1cccs1	960
